Laboratory results reported in patent publication US12091394B2, “Crystal modifications of odevixibat” (Albireo AB, priority 2018, dated 2024).

Columns and labels:
[1] = Stability testing: storage in a closed container under air at 80° C., odevixibat content by HPLC; type: physicochemical; conditions: for Odevixibat content (%): closed container under air at 80° C., HPLC
Procedure: Analyses were performed on an Agilent, Series 1100, equipped with an Agilent 1260 Infinity degasser. Column: Waters XSelcet CHS C18 (150×3 mm, 3.5 μm); Mobile phase A: 0.1% formic acid in water, mobile phase B: 0.1% formic acid in acetonitrile; Gradient 45% to 90% B; flow rate 0.425 mL/min; Acquisition time 35 minutes; Run time 42 minutes; Wave length: 283 nm; Column temperature 20° C. The Chromeleon Version 6.8 software was used.
Samples of amorphous odevixibat (purity ˜91%) and of crystal modification 1 of odevixibat (purity>99%; crystallinity 100%) were stored in a closed container under air at 80° C. The amount of odevixibat in the samples was determined by HPLC at the beginning of the experiment, and was again determined after 1, 2 and 4 weeks.

[2] = Dynamic vapour sorption (DVS) water uptake of crystal modification 1; type: physicochemical
Procedure: DVS measurements were performed with an SPS11-100n “Sorptions Prüfsystem” from ProUmid (formerly “Projekt Messtechnik”), August-Nagel-Str. 23, 89079 Ulm (Germany). About 20 mg of sample was used. Humidity change rates of 5% per hour were used. The sample was placed on an aluminum or platinum holder on top of a microbalance and allowed to equilibrate at 0% RH before starting the pre-defined humidity program: • (1) 5 h at 0% RH • (2) 0→95% RH (5%/h); 5 h at 95% RH • (3) 95→0% RH (5%/h); 5 h at 0% RH • (4) 0→95% RH (5%/h); 5 h at 95% RH • (5) 95→0% RH (5%/h); 5 h at 0% RH High-Performance Liquid Chromatography (HPLC) The water uptake of crystal modification 1 was measured using dynamic vapour sorption (DVS). […] After drying the sample at 0% RH and increasing the relative humidity, most of the water was taken back up to about 25% RH. This corresponds to a water content of about 3.5% (w/w). An additional 1.5% (w/w) of water was then taken up when the humidity was increased up to 95% RH. […] Crystal modification 1 therefore seems to require about 3.5% (w/w) of water, which corresponds to a sesquihydrate.

[3] = 0 weeks (beginning of the experiment)
[4] = after 4 weeks of storage at 80° C. under air

| SMILES | Odevixibat content (%) [1, 3] [%] | Odevixibat content (%) ([1]; 1 week) | Odevixibat content (%) ([1]; 2 weeks) | Odevixibat content (%) ([1]; 4 weeks) | decomposition [1, 4] [%] | change of purity [1, 4] | hygroscopicity ([2]; DVS, conclusion in words) | water content ([2]; after drying at 0% RH, water taken back up to about 25% RH) | maximum water uptake ([2]; at 95% RH, reversible) | water content ([2]; at about 30% relative humidity, based on the total crystal weight) | additional water uptake ([2]; humidity increased up to 95% RH (range 30-95% RH)) |
| --- | --- | --- | --- | --- | --- | --- | --- | --- | --- | --- | --- |
| CCCCC1(CCCC)CN(c2ccccc2)c2cc(SC)c(OCC(=O)N[C@@H](C(=O)N[C@@H](CC)C(=O)O)c3ccc(O)cc3)cc2S(=O)(=O)N1 [Amorphous odevixibat, 1,1-dioxo-3,3-dibutyl-5-phenyl-7-methylthio-8-(N—{(R)-α-[N—((S)-1-carboxypropyl)carbamoyl]-4-hydroxybenzyl}carbamoylmethoxy)-2,3,4,5-tetrahydro-1,2,5-benzothiadiazepine, reference compound] | 91.1 | 90.9 | 91.04 | 90.8 | 0.3 |  |  |  |  |  |  |
| CCCCC1(CCCC)CN(c2ccccc2)c2cc(SC)c(OCC(=O)N[C@@H](C(=O)N[C@@H](CC)C(=O)O)c3ccc(O)cc3)cc2S(=O)(=O)N1 [crystal modification 1, 1,1-dioxo-3,3-dibutyl-5-phenyl-7-methylthio-8-(N—{(R)-α-[N—((S)-1-carboxypropyl)carbamoyl]-4-hydroxybenzyl}carbamoylmethoxy)-2,3,4,5-tetrahydro-1,2,5-benzothiadiazepine] | 99.13 | 99.15 | 99.18 | 99.24 |  | had not changed | slightly hygroscopic | about 3.5 % (w/w) | about 5.0 % (w/w) | about 3.5 % (w/w) | 1.5 % (w/w) |
